Laboratory results taken from patent EP0819688A1, “4-substituted benzofuranes” (Byk Gulden Lomberg Chemische Fabrik GmbH, priority 1996, dated 1998).

Test system: PDE IV
Test: Inhibition of PDE IV activity (method of Bauer and Schwabe, adapted to microtiter plates)
Format: biochemical
Conditions: Hemmung der PDE IV-Aktivität
Excerpt: Der Aktivitätstest wurde nach der Methode von Bauer und Schwabe durchgeführt, die auf Mikrotiterplatten adaptiert wurde (Naunyn-Schmiedeberg's Arch. Pharmacol. 1980, 311, 193-198). Hierbei erfolgt im ersten Schritt die PDE-Reaktion. In einem zweiten Schritt wird das entstandene 5'-Nukleotid durch eine 5'-Nukleotidase des Schlangengiftes von ophiophagus hannah (King Cobra) zum ungeladenen Nukleosid gespalten. Im dritten Schritt wird das Nukleosid auf Ionenaustauschsäulen vom verbliebenen geladenen Substrat getrennt. Die Säulen werden mit 2 ml 30 mM Ammoniumformiat (pH 6,0) direkt in Minivials eluiert, in die noch 2 ml Szintillatorflüssigkeit zur Zählung gegeben wird.
Die für die erfindungsgemäßen Verbindungen ermittelten Hemmwerte ergeben sich aus der folgenden Tabelle A, in der die Nummern der Verbindungen den Nummern der Beispiele entsprechen. Tabelle A

Structure (SMILES) | PDE4 -logIC50
COc1ccc(CC(C#N)c2ccncc2)c2cc(C(C)C)oc12 (racemic) [Verbindung 12, (±)-4-[2-Cyano-2-(pyrid-4-yl)ethyl]-2-isopropyl-7-methoxybenzofuran] | 7,26
COc1ccc(CCc2ccncc2)c2cc(C(C)C)oc12 [Verbindung 6, 2-Isopronyl-7-methoxy-4-[2-(pyrid-4-yl)ethyl]benzofuran] | 8,22
COc1ccc(CC(C#N)c2cccnc2)c2cc(C3CCCC3)oc12 (racemic) [Verbindung 11, (±)-4-[2-Cyano-2-(pyrid-3-yl)ethyl]-2-cyclopentyl-7-methoxybenzofuran] | 6,99
COc1ccc(/C=C(\C#N)c2cccnc2)c2cc(C3CCCC3)oc12 [Verbindung 8, (Z)-4-[2-Cyano-2-(pyrid-3-yl)ethenyl]-2-cyclopentyl-7-methoxy-benzofuran] | 6,51
COc1ccc(C(O)Cc2ccncc2)c2cc(C(C)C)oc12 (racemic) [Verbindung 2, (±)-4-[1-Hydroxy-2-(pyrid-4-yl)ethyl]-2-isopropyl-7-methoxybenzofuran] | 6,86
COc1ccc(/C=C/c2ccncc2)c2cc(C3CCCC3)oc12 [Verbindung 3, (E)-2-Cyclopentyl-4-[2-(pyrid-4-yl)ethenyl]-7-methoxybenzofuran] | 6,77
COc1ccc(/C=C/c2ccncc2)c2cc(C(C)C)oc12 [Verbindung 4, (E)-2-Isopropyl-4-[2-(pyrid-4-yl)ethenyl]-7-methoxybenzofuran] | 7,21
COc1ccc(/C=C(\C#N)c2ccncc2)c2cc(C3CCCC3)oc12 [Verbindung 7, (Z)-4-[2-Cyano-2-(pyrid-4-yl)ethenyl]-2-cyclopentyl-7-methoxy-benzofuran] | 6,29
COc1ccc(CCc2ccncc2)c2cc(C3CCCC3)oc12 [Verbindung 5, 2-Cyclopentyl-7-methoxy-4-[2-(pyrid-4-yl)ethyl]benzofuran] | 7,97
COc1ccc(C(O)Cc2ccncc2)c2cc(C3CCCC3)oc12 (racemic) [Verbindung 1] | 6,45
COc1ccc(CC(C#N)c2ccncc2)c2cc(C3CCCC3)oc12 (racemic) [Verbindung 10, (±)-4-[2-Cyano-2-(pyrid-4-yl)ethyl]-2-cyclopentyl-7-methoxybenzofuran] | 6,56
COc1ccc(C=C(C#N)c2ccncc2)c2cc(C(C)C)oc12 (mixture of isomers) [Verbindung 9, (E/Z)-4-[2-Cyano-2-(pyrid-4-yl)ethenyl]-2-isopropyl-7-methoxybenzofuran] | 6,64
